# According to PMC10035947, “Development of novel anilinoquinazoline-based carboxylic acids as non-classical carbonic anhydrase IX and XII inhibitors” (Journal of Enzyme Inhibition and Medicinal Chemistry, 2023):
# How the values were obtained:
# IGROV1 = experiment: NCI SRB assay; type: cell-based, human; conditions: for GI%: IGROV1, 10 μM; for Growth Percent: IGROV1, 1.00E-5 Molar
# LOX IMVI = experiment: NCI SRB assay; type: cell-based, human; conditions: for GI%: 10 μM; for Growth Percent: 1.00E-5 Molar
# SK-MEL-28 = experiment: NCI SRB assay; type: cell-based, human; conditions: for GI%: SK-MEL-28, 10 μM; for Growth Percent: SK-MEL-28, 1.00E-5 Molar
# MOLT-4 = experiment: NCI SRB assay; type: cell-based, human; conditions: for GI%: MOLT-4, 10 μM; for Growth Percent: MOLT-4, 1.00E-5 Molar
# MDA-MB-435 = experiment: NCI SRB assay; type: cell-based; conditions: for GI%: MDA-MB-435, 10 μM; for Growth Percent: MDA-MB-435, 1.00E-5 Molar
# TK-10 = experiment: NCI SRB assay; type: cell-based, human; conditions: for GI%: TK-10, 10 μM; for Growth Percent: TK-10, 1.00E-5 Molar
# U251 = experiment: NCI SRB assay; type: cell-based, human; conditions: for GI%: U251, 10 μM; for Growth Percent: U251, 1.00E-5 Molar
# NCI-H522 = experiment: NCI SRB assay; type: cell-based, human; conditions: for GI%: NCI-H522, 10 μM; for Growth Percent: NCI-H522, 1.00E-5 Molar
# UACC-62 = experiment: NCI SRB assay; type: cell-based, human; conditions: for GI%: UACC-62, 10 μM; for Growth Percent: UACC-62, 1.00E-5 Molar
# K-562 = experiment: NCI SRB assay; type: cell-based, human; conditions: for GI%: K-562, 10 μM; for Growth Percent: K-562, 1.00E-5 Molar
# [1] = test system: 59 human cancer cell lines representing nine tumour subpanels; experiment: NCI SRB assay, panel and subpanel summaries; conditions: all cell lines; for Mean GI %: 10 μM; for Mean Growth Percent: 1.00E-5 Molar
# KM12 = experiment: NCI SRB assay; type: cell-based, human; conditions: for GI%: KM12, 10 μM; for Growth Percent: KM12, 1.00E-5 Molar
# SW-620 = experiment: NCI SRB assay; type: cell-based, human; conditions: for GI%: SW-620, 10 μM; for Growth Percent: SW-620, 1.00E-5 Molar
# M14 = experiment: NCI SRB assay; type: cell-based, human; conditions: for GI%: M14, 10 μM; for Growth Percent: M14, 1.00E-5 Molar
# OVCAR-3 = experiment: NCI SRB assay; type: cell-based, human; conditions: for GI%: OVCAR-3, 10 μM; for Growth Percent: OVCAR-3, 1.00E-5 Molar
# SK-MEL-2 = experiment: NCI SRB assay; type: cell-based, human; conditions: for GI%: SK-MEL-2, 10 μM; for Growth Percent: SK-MEL-2, 1.00E-5 Molar
# NCI-H23 = experiment: NCI SRB assay; type: cell-based, human; conditions: for GI%: NCI-H23, 10 μM; for Growth Percent: NCI-H23, 1.00E-5 Molar
# 786-0 = experiment: NCI SRB assay; type: cell-based, human; conditions: for GI%: 786-0, 10 μM; for Growth Percent: 786-0, 1.00E-5 Molar
# HOP-62 = experiment: NCI SRB assay; type: cell-based, human; conditions: for GI%: HOP-62, 10 μM; for Growth Percent: HOP-62, 1.00E-5 Molar
# OVCAR-5 = experiment: NCI SRB assay; type: cell-based, human; conditions: for GI%: OVCAR-5, 10 μM; for Growth Percent: OVCAR-5, 1.00E-5 Molar
# ACHN = experiment: NCI SRB assay; type: cell-based, human; conditions: for GI%: 10 μM; for Growth Percent: 1.00E-5 Molar
# SNB-75 = experiment: NCI SRB assay; type: cell-based, human; conditions: for GI%: SNB-75, 10 μM; for Growth Percent: SNB-75, 1.00E-5 Molar
# SF-295 = experiment: NCI SRB assay; type: cell-based, human; conditions: for GI%: SF-295, 10 μM; for Growth Percent: SF-295, 1.00E-5 Molar
# NCI-H226 = experiment: NCI SRB assay; type: cell-based, human; conditions: for GI%: NCI-H226, 10 μM; for Growth Percent: NCI-H226, 1.00E-5 Molar
# hCA II = target: T1, hCA II (Homo sapiens, UniProt P00918); experiment: stopped flow CO2 hydrase assay; type: biochemical; conditions: mean from 3 assays
# T1 construct: made in house
# Summary of the method: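 Stopped-flow CO2 hydration with phenol red (0.2 mM) at 557 nm in 20 mM Hepes pH 7.5, 20 mM Na2SO4, CO2 1.7–17 mM, recombinant enzyme. Inhibitor preincubated 15 min at room temperature; uncatalyzed rate subtracted, Ki via Cheng-Prusoff, mean of ≥3 determinations.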
# HL-60(TB) = experiment: NCI SRB assay; type: cell-based, human; conditions: HL-60(TB); for GI%: 10 μM; for Growth Percent: 1.00E-5 Molar
smiles,measurement,setting,value
"Cc1cccc(-c2nc(Nc3ccccc3C(=O)O)c3ccccc3n2)c1 [6a, 2-((2-(m-Tolyl)quinazolin-4-yl)amino)benzoic acid]",GI%,IGROV1,41%
same,Growth Percent,IGROV1,59.24%
same,GI%,LOX IMVI,64%
same,Growth Percent,LOX IMVI,36.42%
same,GI%,SK-MEL-28,50%
same,Growth Percent,SK-MEL-28,49.95%
same,GI%,MOLT-4,65%
same,Growth Percent,MOLT-4,34.28%
same,GI%,MDA-MB-435,55%
same,Growth Percent,MDA-MB-435,44.63%
same,GI%,TK-10,– (Only GI% higher than 20% are shown)
same,Growth Percent,TK-10,85.85%
same,GI%,U251,73%
same,Growth Percent,U251,26.61%
same,GI%,NCI-H522,40%
same,Growth Percent,NCI-H522,59.94%
same,GI%,UACC-62,72%
same,Growth Percent,UACC-62,28.00%
same,GI%,K-562,71%
same,Growth Percent,K-562,28.68%
same,Mean GI %,[1],63%
same,Mean Growth Percent,[1],37.30%
same,GI%,KM12,70%
same,Growth Percent,KM12,29.97%
same,GI%,SW-620,65%
same,Growth Percent,SW-620,35.45%
same,GI%,M14,75%
same,Growth Percent,M14,25.25%
same,GI%,OVCAR-3,66%
same,Growth Percent,OVCAR-3,34.15%
same,GI%,SK-MEL-2,34%
same,Growth Percent,SK-MEL-2,66.01%
same,GI%,NCI-H23,79%
same,Growth Percent,NCI-H23,20.79%
same,GI%,786-0,75%
same,Growth Percent,786-0,25.01%
same,GI%,HOP-62,54%
same,Growth Percent,HOP-62,46.18%
same,GI%,OVCAR-5,23%
same,Growth Percent,OVCAR-5,77.00%
same,GI%,ACHN,63%
same,Growth Percent,ACHN,36.44%
same,GI%,SNB-75,45%
same,Growth Percent,SNB-75,55.27%
same,GI%,SF-295,73%
same,Growth Percent,SF-295,27.07%
same,GI%,NCI-H226,64%
same,Growth Percent,NCI-H226,36.13%
same,Ki,hCA II,85.2 µM
same,GI%,HL-60(TB),60%
same,Growth Percent,HL-60(TB),39.37%
"Cc1cccc(-c2nc(Nc3ccc(C(=O)O)cc3)c3ccccc3n2)c1 [8a, 4-((2-(m-Tolyl)quinazolin-4-yl)amino)benzoic acid]",GI%,IGROV1,– (Only GI% higher than 20% are shown)
same,Growth Percent,IGROV1,110.06%
same,GI%,LOX IMVI,29%
same,Growth Percent,LOX IMVI,71.49%
same,GI%,SK-MEL-28,– (Only GI% higher than 20% are shown)
same,Growth Percent,SK-MEL-28,96.84%
same,GI%,MOLT-4,22%
same,Growth Percent,MOLT-4,78.39%
same,GI%,MDA-MB-435,– (Only GI% higher than 20% are shown)
same,Growth Percent,MDA-MB-435,96.58%
same,GI%,TK-10,– (Only GI% higher than 20% are shown)
same,Growth Percent,TK-10,91.50%
same,GI%,U251,27%
same,Growth Percent,U251,72.61%
same,GI%,NCI-H522,– (Only GI% higher than 20% are shown)
same,Growth Percent,NCI-H522,87.55%
same,GI%,UACC-62,– (Only GI% higher than 20% are shown)
same,Growth Percent,UACC-62,104.52%
same,GI%,K-562,– (Only GI% higher than 20% are shown)
same,Growth Percent,K-562,80.44%
same,Mean GI %,[1],16%
same,Mean Growth Percent,[1],84.51%
same,GI%,KM12,23%
same,Growth Percent,KM12,76.63%
same,GI%,SW-620,– (Only GI% higher than 20% are shown)
same,Growth Percent,SW-620,84.27%
same,GI%,M14,– (Only GI% higher than 20% are shown)
same,Growth Percent,M14,88.98%
same,GI%,OVCAR-3,– (Only GI% higher than 20% are shown)
same,Growth Percent,OVCAR-3,82.69%
same,GI%,SK-MEL-2,– (Only GI% higher than 20% are shown)
same,Growth Percent,SK-MEL-2,123.11%
same,Growth Percent,NCI-H23,99.04%
same,GI%,786-0,29%
same,Growth Percent,786-0,70.77%
same,GI%,HOP-62,– (Only GI% higher than 20% are shown)
same,Growth Percent,HOP-62,95.14%
same,GI%,OVCAR-5,– (Only GI% higher than 20% are shown)
same,Growth Percent,OVCAR-5,133.93%
same,GI%,ACHN,– (Only GI% higher than 20% are shown)
same,Growth Percent,ACHN,85.41%
same,GI%,SNB-75,– (Only GI% higher than 20% are shown)
same,Growth Percent,SNB-75,100.40%
same,GI%,SF-295,36%
same,Growth Percent,SF-295,63.92%
same,GI%,NCI-H226,52%
same,Growth Percent,NCI-H226,47.62%
same,Ki,hCA II,9.3 µM
same,GI%,HL-60(TB),– (Only GI% higher than 20% are shown)
same,Growth Percent,HL-60(TB),92.72%
"COc1ccc(-c2nc(Nc3ccccc3C(=O)O)c3ccccc3n2)cc1 [6c, 2-((2–(4-Methoxyphenyl)quinazolin-4-yl)amino)benzoic acid]",GI%,IGROV1,21%
same,Growth Percent,IGROV1,78.77%
same,GI%,LOX IMVI,50%
same,Growth Percent,LOX IMVI,49.53%
same,GI%,SK-MEL-28,35%
same,Growth Percent,SK-MEL-28,65.22%
same,GI%,MOLT-4,64%
same,Growth Percent,MOLT-4,36.24%
same,GI%,MDA-MB-435,44%
same,Growth Percent,MDA-MB-435,56.03%
same,Growth Percent,TK-10,74.99%
same,GI%,U251,66%
same,Growth Percent,U251,34.16%
same,GI%,NCI-H522,63%
same,Growth Percent,NCI-H522,37.29%
same,GI%,UACC-62,44%
same,Growth Percent,UACC-62,55.88%
same,GI%,K-562,69%
same,Growth Percent,K-562,31.34%
same,Mean GI %,[1],52%
same,Mean Growth Percent,[1],48.18%
same,GI%,KM12,64%
same,Growth Percent,KM12,35.66%
same,GI%,SW-620,61%
same,Growth Percent,SW-620,39.05%
same,GI%,M14,48%
same,Growth Percent,M14,52.09%
same,GI%,OVCAR-3,54%
same,Growth Percent,OVCAR-3,43.93%
same,GI%,SK-MEL-2,57%
same,Growth Percent,SK-MEL-2,43.49%
same,GI%,NCI-H23,38%
same,Growth Percent,NCI-H23,62.10%
same,GI%,786-0,48%
same,Growth Percent,786-0,51.90%
same,GI%,HOP-62,49%
same,Growth Percent,HOP-62,51.05%
same,GI%,OVCAR-5,27%
same,Growth Percent,OVCAR-5,73.07%
same,GI%,ACHN,54%
same,Growth Percent,ACHN,46.21%
same,GI%,SNB-75,68%
same,Growth Percent,SNB-75,32.48%
same,GI%,SF-295,60%
same,Growth Percent,SF-295,39.93%
same,GI%,NCI-H226,47%
same,Growth Percent,NCI-H226,53.45%
same,Ki,hCA II,83.1 µM
same,GI%,HL-60(TB),67%
same,Growth Percent,HL-60(TB),32.98%
